The target in one assay is S. pneumoniae Topoisomerase IV ATPase (ParE) (Streptococcus pneumoniae serotype 4, UniProt Q59961). In words: S. pneumoniae Topoisomerase IV ATPase inhibition. The format is biochemical. The following applies: values marked * are an average of two or more data points, 13 µM. A digest of the protocol:
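ParE ATPase (1.25 nM) run with 160 μM ATP and 5 μg/ml sheared salmon sperm DNA in Tris pH 8.0, Mg2+, glycerol, DTT, Brij-35. Phosphate released read by malachite green/molybdate absorbance at 650 nm. IC50 from 10 compound concentrations; DMSO (2%) as 0% and EDTA (20 μM) as 100% inhibition.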
Sequence of S. pneumoniae Topoisomerase IV ATPase (ParE) (Q59961 whole entry): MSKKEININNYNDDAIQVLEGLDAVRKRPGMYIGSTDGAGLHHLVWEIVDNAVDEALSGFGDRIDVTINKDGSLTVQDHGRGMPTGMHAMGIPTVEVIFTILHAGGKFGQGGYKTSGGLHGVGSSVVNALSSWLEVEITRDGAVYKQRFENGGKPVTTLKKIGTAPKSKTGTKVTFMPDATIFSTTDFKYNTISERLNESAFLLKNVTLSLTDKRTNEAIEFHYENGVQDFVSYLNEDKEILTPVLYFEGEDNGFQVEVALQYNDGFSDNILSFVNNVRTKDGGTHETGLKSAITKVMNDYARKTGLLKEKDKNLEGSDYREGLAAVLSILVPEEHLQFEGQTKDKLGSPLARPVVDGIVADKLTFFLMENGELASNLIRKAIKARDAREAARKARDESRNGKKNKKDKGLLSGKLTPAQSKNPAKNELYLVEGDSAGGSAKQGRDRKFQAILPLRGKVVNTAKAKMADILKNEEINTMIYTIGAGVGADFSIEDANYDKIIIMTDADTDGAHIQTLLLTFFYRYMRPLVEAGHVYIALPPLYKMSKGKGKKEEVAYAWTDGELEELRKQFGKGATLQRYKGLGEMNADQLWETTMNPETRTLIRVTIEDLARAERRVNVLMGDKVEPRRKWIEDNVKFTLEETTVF
Regarding `COc1ccc(C(=O)O)cc1-c1cnc(Nc2ccc(F)c(Cl)c2)nc1-n1ccc(C(F)(F)F)n1` [Example 1138, 3-(2-(3-chloro-4-fluorophenylamino)-4-(3-(trifluoromethyl)-1H-pyrazol-1-yl)pyrimidin-5-yl)-4-methoxybenzoic acid], the “% Inh (13 μM) of S. pneumoniae Topoisomerase IV ATPase” value is reported as 94%.

The assay is the same for the next values; noted with them: values marked * are an average of two or more data points, read-out: % Inh (13 μM) of S. pneumoniae Topoisomerase IV ATPase.
As to `COc1cc(Nc2ncc(-c3cncc(C(=O)NCC(O)CO)c3)c(-n3nc(C(F)(F)F)cc3C)n2)cc(C(F)(F)F)c1` (stereo not shown) [Example 936, N-(2,3-dihydroxypropyl)-5-(2-(3-methoxy-5-(trifluoromethyl)phenylamino)-4-(5-methyl-3-(trifluoromethyl)-1H-pyrazol-1-yl)pyrimidin-5-yl)nicotinamide], the inhibition at 13 µM stood at 100%.
Same read-out and setting: in the case of `COCCNC(=O)c1cncc(-c2cnc(Nc3ccc(F)c(Cl)c3)nc2-n2nc(C(F)(F)F)cc2C)c1` [Example 934, 5-(2-(3-chloro-4-fluorophenylamino)-4-(5-methyl-3-(trifluoromethyl)-1H-pyrazol-1-yl)pyrimidin-5-yl)-N-(2-methoxyethyl)nicotinamide] it was 100%; in that of `O=C(O)c1cc2cc(-c3cnc(Nc4ccc(F)c(Cl)c4)nc3N3CCOCC3)ccc2[nH]1` [Example 1064, 5-(2-(3-Chloro-4-fluorophenylamino)-4-morpholinopyrimidin-5-yl)-1H-indole-2-carboxylic acid], 100%.
Same read-out and setting: the figure for `NC(=O)c1cncc(-c2cnc(Nc3ccc(F)c(Cl)c3)nc2NCCc2c[nH]cn2)c1` [Example 472, 5-(2-[(3-chloro-4-fluorophenyl)amino]-4-{[2-(1H-imidazol-4-yl)ethyl]amino}pyrimidin-5-yl)-pyridine-3-carboxamide] is 100%; for `CCn1cc(-c2cnc(Nc3cc(OC)cc(OC)c3)nc2-n2nc(C(F)(F)F)cc2C)cc(C(=O)O)c1=O` [Example 919, 5-(2-(3,5-dimethoxyphenylamino)-4-(5-methyl-3-(trifluoromethyl)-1H-pyrazol-1-yl)pyrimidin-5-yl)-1-ethyl-2-oxo-1,2-dihydropyridine-3-carboxylic acid] it is 99%.
For the compound `O=C(O)c1cccc(-c2cnc(Nc3cc(F)cc(Cl)c3)nc2N2CCOCC2)n1` [Example 393, 6-[2-(3-Chloro-5-fluoro-phenylamino)-4-morpholin-4-yl-pyrimidin-5-yl]-pyridine-2-carboxylic acid], the inhibition at 13 µM amounted to 82%.
Still for that read-out and setting: in the case of `Cc1cc(C(F)(F)F)nn1-c1nc(Nc2ccc3c(c2)CCC3)ncc1-c1cncc(C(=O)O)c1` [Example 669, 5-{2-(2,3-dihydro-1H-inden-5-ylamino)-4-[5-methyl-3-(trifluoromethyl)-1H-pyrazol-1-yl]pyrimidin-5-yl}pyridine-3-carboxylic acid] it was 68%; in that of `NC(=O)c1cncc(-c2cnc(Nc3ccc(F)c(Cl)c3)nc2NCCc2cccnc2)c1` [Example 473, 5-(2-[(3-chloro-4-fluorophenyl)amino]-4-{[2-(pyridin-3-yl)ethyl]amino}pyrimidin-5-yl)-pyridine-3-carboxamide], 62%.
Still for that read-out and setting: in the case of `O=C(O)C(=O)Nc1cccc(-c2cnc(Nc3ccc(F)c(Cl)c3)nc2-n2ccc(C(F)(F)F)n2)c1` [Example 1072, 2-(3-(2-(3-Chloro-4-fluorophenylamino)-4-(3-(trifluoromethyl)-1H-pyrazol-1-yl)pyrimidin-5-yl)phenylamino)-2-oxoacetic acid] it was 95%; in that of `O=C(O)c1cncc(-c2cnc(Nc3ccc(F)c(Cl)c3)nc2NCc2nc3ccccc3[nH]2)c1` [Example 241, 5-[4-(1H-benzimidazol-2-ylmethylamino)-2-[(3-chloro-4-fluorophenyl)amino]-pyrimidin-5-yl]pyridine-3-carboxylic acid], 71.5%.
As to `COCCCNc1nc(Nc2ccc(F)c(Cl)c2)ncc1-c1nc(-c2ccn(C)n2)c(C(=O)O)s1` [Example 512, 2-{2-[(3-chloro-4-fluorophenyl)amino]-4-[(3-methoxypropyl)amino]pyrimidin-5-yl}-4-(1-methyl-1H-pyrazol-3-yl)-1,3-thiazole-5-carboxylic acid], the inhibition at 13 µM stood at 100%.
The same measure, in the same setting: the figure for `COc1ncc(-c2cnc(Nc3cc(C)cc(Cl)c3)nc2-n2ccc(C(F)(F)F)n2)cc1C(=O)O` [Example 799, 5-{2-[(3-chloro-5-methylphenyl)amino]-4-[3-(trifluoromethyl)-1H-pyrazol-1-yl]pyrimidin-5-yl}-2-methoxypyridine-3-carboxylic acid] is 100%; for `COc1cc(Nc2ncc(-c3cccc(/C=C/C(=O)O)c3)c(N3CCOCC3)n2)cc(OC)c1` [Example 351, (E)-3-(3-(2-(3,5-dimethoxyphenylamino)-4-morpholinopyrimidin-5-yl)phenyl) acrylic acid] it is 82.8%.
Same read-out and setting: in the case of `COCCCNc1nc(Nc2ccc(F)c(Cl)c2)ncc1-c1cncnc1` [Example 75, N^2-(3-chloro-4-fluorophenyl)-N^4-(3-methoxypropyl)-5,5′-bipyrimidin-2,4-diamine] it was 97.6%.
Still for that read-out and setting: in the case of `COCCn1cc(-c2cnc(Nc3cc(OC)cc(OC)c3)nc2-n2ccc(C(F)(F)F)n2)cc(C(=O)O)c1=O` [Example 1159] it was 100%.
With `CS(=O)(=O)c1cncc(-c2cnc(Nc3ccc(F)c(Cl)c3)nc2-n2ccc(C(F)(F)F)n2)c1` [Example 990, N-(3-chloro-4-fluorophenyl)-5-(5-(methylsulfonyl)pyridin-3-yl)-4-(3-(trifluoromethyl)-1H-pyrazol-1-yl)pyrimidin-2-amine], the inhibition at 13 µM was 100%.
On the same count and under the same terms, the figure for `CC(=O)c1ccc(-c2cnc(Nc3ccc(F)c(Cl)c3)nc2NCCCN(C)C)s1` [Example 12, 1-{5-[2-(3-chloro-4-fluorophenylamino)-4-[3-(dimethylamino)propylamino)pyrimidin-5-yl]thiophen-2-yl}ethanone] is 108%; for `CCn1cc(-c2cnc(Nc3cc(C)cc(OC)c3)nc2-n2ccc(C(F)(F)F)n2)cc(C(=O)NS(C)(=O)=O)c1=O` [Example 1175, 1-ethyl-5-{2-[(3-methoxy-5-methylphenyl)amino]-4-[3-(trifluoromethyl)-1H-pyrazol-1-yl]pyrimidin-5-yl}-N-(methylsulfonyl)-2-oxo-1,2-dihydropyridine-3-carboxamide] it is 99%.
As to `COC1CCN(c2nc(Nc3ccc(F)c(Cl)c3)ncc2-c2cncc(C(=O)O)c2)CC1` [Example 249, 5-[2-[(3-chloro-4-fluorophenyl)amino]-4-(4-methoxypiperidin-1-yl)pyrimidin-5-yl]pyridine-3-carboxylic acid], the inhibition at 13 µM came out at 70.8%.
Turning to `O=C(O)/C=C/c1cncc(-c2cnc(Nc3ccc(F)c(Cl)c3)nc2-n2ccc(C(F)(F)F)n2)c1` [Example 1156, (E)-3-(5-(2-(3-chloro-4-fluorophenylamino)-4-(3-(trifluoromethyl)-1H-pyrazol-1-yl)pyrimidin-5-yl)pyridin-3-yl)acrylic acid], the inhibition at 13 µM worked out at 88%.
Still for that read-out and setting: in the case of `O=C(O)/C=C/c1cccc(-c2cnc(Nc3ccc(F)c(Cl)c3)nc2-n2cc(-c3ccncn3)cn2)c1` [Example 568, (2E)-3-(3-{2-[(3-chloro-4-fluorophenyl)amino]-4-[4-(pyrimidin-4-yl)-1H-pyrazol-1-yl]pyrimidin-5-yl}phenyl)prop-2-enoic acid] it was 100%; in that of `COc1cc(Nc2ncc(-c3cnc(SC)c(C(=O)NS(C)(=O)=O)c3)c(-n3nc(C(F)(F)F)cc3C)n2)cc(OC)c1` [Example 855, 5-{2-[(3,5-dimethoxyphenyl)amino]-4-[5-methyl-3-(trifluoromethyl)-1H-pyrazol-1-yl]pyrimidin-5-yl}-2-(methylsulfanyl)-N-(methylsulfonyl)pyridine-3-carboxamide], 94%; in that of `COc1cc(Nc2ncc(-c3cnc(OC)c(C(=O)NS(=O)(=O)CCCN4CCOCC4)c3)c(-n3nc(C(F)(F)F)cc3C)n2)cc(OC)c1` [Example 821, 5-{2-[(3,5-dimethoxyphenyl)amino]-4-[5-methyl-3-(trifluoromethyl)-1H-pyrazol-1-yl]pyrimidin-5-yl}-2-methoxy-N-{[3-(morpholin-4-yl)propyl]sulfonyl}pyridine-3-carboxamide], 100%.
The same measure, in the same setting: in the case of `CCOC(=O)c1cncc(-c2cnc(Nc3ccc(F)c(Cl)c3)nc2NCCc2cccnc2)c1` [Example 102, 5-[2-(3-Chloro-4-fluoro-phenylamino)-4-(2-pyridin-3-yl-ethylamino)-pyrimidin-5-yl]-nicotinic acid ethyl ester] it was 73.5%; in that of `COc1c(F)cc(Nc2ncc(-c3cccc(/C=C/C(=O)O)c3)c(N3CCOCC3)n2)cc1F` [Example 403, (E)-3-{3-[2-(3,5-Difluoro-4-methoxy-phenylamino)-4-morpholin-4-yl-pyrimidin-5-yl]-phenyl}-acrylic acid], 30%; in that of `COc1ncc(-c2cnc(Nc3cc(C)cc(C)c3)nc2-n2nc(C(F)(F)F)cc2C)cc1C(=O)NS(C)(=O)=O` [Example 899, 5-(2-(3,5-dimethylphenylamino)-4-(5-methyl-3-(trifluoromethyl)-1H-pyrazol-1-yl)pyrimidin-5-yl)-2-methoxy-N-(methylsulfonyl)nicotinamide], 97%.
Same read-out and setting: the figure for `COc1cc(Nc2ncc(-c3cnc(OC)c(C(=O)NS(=O)(=O)C4=CCS(=O)(=O)C4)c3)c(-n3nc(C(F)(F)F)cc3C)n2)cc(OC)c1` [Example 840, 5-{2-[(3,5-dimethoxyphenyl)amino]-4-[5-methyl-3-(trifluoromethyl)-1H-pyrazol-1-yl]pyrimidin-5-yl}-N-[(1,1-dioxido-2,5-dihydrothiophen-3-yl)sulfonyl]-2-methoxypyridine-3-carboxamide] is 99%.
